The Bradley open melting point set (2014)
Several values for one entry are separate records, joined by “and”; a condition that tells them apart may be missing. Equal entries are not always repeated. Structures can show the parent of a compound that is named as a salt.

| SMILES | melting point |
| --- | --- |
| CCOC(=O)C(C#N)=Cc1ccccc1 [Ethyl 2-Cyano-3-Phenylacrylate] | 49 °C |
| CCOC(=O)C(C#N)=C(SC)SC [Ethyl 2-cyano-3,3-bis(methylsulfanyl)acrylate] | 54 °C |
| CCOC(=O)c1ccc(O)cc1 [Ethyl 4-hydroxybenzoate] | 116 °C |
| CCOC(=O)c1cc(C)[nH]n1 [Ethyl 5-methyl-1H-pyrazole-3-carboxylate] | 87 °C |
| CCOC(=O)Cn1cnc2ncnc(Cl)c21 [Ethyl (6-chloro-7H-purin-7-yl)acetate] | 108 °C |
| CCOC(C)=O [Ethyl acetate] | -84 °C |
| CCOC(=O)c1ccccc1 [Ethyl benzoate] | -34 °C |
| C=C(C)C(=O)OCC [Ethyl methacrylate] | -75 °C |
| COc1cc([C@@H]2c3cc4c(cc3[C@@H](O[C@@H]3O[C@@H]5CO[C@@H](C)O[C@H]5[C@H](O)[C@H]3O)[C@H]3COC(=O)[C@H]23)OCO4)cc(OC)c1O [Etoposide] | 244 °C |
| CN(C)C(=O)Nc1ccccc1 [Fenuron] | 132 °C |
| O=C1OC2(c3ccc(O)cc3Oc3cc(O)ccc32)c2ccccc21 [Fluorescein] | 315 °C |
| CC(C(=O)O)c1ccc(-c2ccccc2)c(F)c1 (stereo unspecified) [Flurbiprofen] [listing 1 of 2 here] | 110 °C |
| CC(C(=O)O)c1ccc(-c2ccccc2)c(F)c1 (stereo unspecified) [Flurbiprofen] [listing 2 of 2 here] | 110 °C |
| O=C(O)/C=C/C(=O)O [Fumaric Acid] | 287 °C |
| NS(=O)(=O)c1cc(C(=O)O)c(NCc2ccco2)cc1Cl [Furosemide] | 206 °C |
| COc1ccc(Cl)cc1C(=O)NCCc1ccc(S(=O)(=O)NC(=O)NC2CCCCC2)cc1 [Glibenclamide] | 170 °C |
| O=C(O)CO [Glycol acid] | 80 °C |
| NCC(=O)NCC(=O)O [Glycylglycine] | 258 °C |
| Nc1nc2c(ncn2[C@@H]2O[C@@H](CO)[C@H](O)[C@H]2O)c(=O)[nH]1 [Guanosine] | 239 °C |
| COc1ccc(C(C)=CC(=O)O)c(OC)c1 [Hepadial] | 149 °C |
| CCCCCCCCCCCCCCCCCO [Heptadecan-1-ol] | 57 °C |
| CCCCC(=O)CC [Heptan-3-one] | -39 °C |
| CCCCCCC=O [Heptanal] | -43 °C |
| C=CCCCC [Hex-1-ene] | -140 °C |
| Clc1c(Cl)c(Cl)c(Cl)c(Cl)c1Cl [Hexachlorobenzene] [listing 1 of 2 here] | 230 °C |
| Clc1c(Cl)c(Cl)c(Cl)c(Cl)c1Cl [Hexachlorobenzene] [listing 2 of 2 here] | 228 °C |

| SMILES | melting point |
| --- | --- |
| CCCCCCCCCCCCCCCCO [Hexadecan-1-ol] | 50 °C |
| FC(F)(F)C(F)(F)F [Hexafluoroethane] | -100 °C |
| Cc1c(C)c(C)c(C)c(C)c1C [Hexamethylbenzene] | 167 °C |
| C[C@]12CCC(=O)C=C1CC[C@@H]1[C@@H]2[C@@H](O)C[C@@]2(C)[C@H]1CC[C@]2(O)C(=O)CO [Hydrocortisone] [listing 1 of 2 here] | 218 °C |
| C[C@]12CCC(=O)C=C1CC[C@@H]1[C@@H]2[C@@H](O)C[C@@]2(C)[C@H]1CC[C@]2(O)C(=O)CO [Hydrocortisone] [listing 2 of 2 here] | 220 °C |
| OO [Hydrogen peroxide] | -40 °C |
| CC(C)Cc1ccc(C(C)C(=O)O)cc1 (stereo unspecified) [Ibuprofen] | 76 °C |
| O=c1[nH]c(=O)n([C@H]2C[C@H](O)[C@@H](CO)O2)cc1I [Idoxuridine] | 165 °C |
| COc1ccc2c(c1)c(CC(=O)O)c(C)n2C(=O)c1ccc(Cl)cc1 [Indomethacin] | 159 °C |
| CCC1(CCC(C)C)C(=O)NC(=O)NC1=O [Inmetal] | 156 °C |
| [O-][I+2]([O-])O [Iodic acid] | 110 °C |
| IC(I)I [Iodoform] | 122 °C |
| CCCCC1=NC2(CCCC2)C(=O)N1Cc1ccc(-c2ccccc2-c2nnn[nH]2)cc1 [Irbesartan] | 180 °C |
| CC(C)C [Isobutane] | -160 °C |
| CC(C)C(=O)O [Isobutyric Acid] | -46 °C |
| O=C=N/C1CCCCC1 [Isocyanatocyclohexane] | -80 °C |
| NNC(=O)c1ccncc1 [Isoniazid] | 171 °C |
| NNC(=O)c1ccncc1 [Isonicotinohydrazide] | 171 °C |
| CCC(C)C [Isopentane] | -160 °C |
| CC(C)O [Isopropyl Alcohol] | -89.5 °C |
| CC(=O)N1CCN(c2ccc(OC[C@@H]3CO[C@@](Cn4ccnc4)(c4ccc(Cl)cc4Cl)O3)cc2)CC1 [Ketoconazole] | 146 °C |
| CCCCCCCCCCCCCCCC(=O)OC[C@H](O)[C@H]1OC(=O)C(O)=C1O [L-ascorbic acid 6-palmitate] | 114 °C |
| O=C[C@H](O)[C@H](O)[C@@H](O)CO [L-lyxose] | 110 °C |
| OC[C@@H]1OC(O)[C@@H](O)[C@H]1O (stereo partly drawn) [L-ribose] | 87 °C |
| O=C(O)[C@H](O)[C@@H](O)C(=O)O [L-tartaric acid] | 169 °C |
| CC(C)[C@H](N)C(=O)O [L-valine] | 315 °C |

| SMILES | melting point |
| --- | --- |
| CC(CCc1ccccc1)NCC(O)c1ccc(O)c(C(N)=O)c1 (stereo unspecified) [Labetalol] | 196 °C |
| c1ccc([C@H]2CN3CCSC3=N2)cc1 [Levamisole] | 264 °C |
| C#C[C@]1(O)CC[C@H]2[C@@H]3CCC4=CC(=O)CC[C@@H]4[C@H]3CC[C@@]21CC [Levonorgestrel] | 236 °C |
| N[C@@H](Cc1cc(I)c(Oc2cc(I)c(O)c(I)c2)c(I)c1)C(=O)O [Levothyroxine] | 236 °C |
| O=C1Nc2ccc(Cl)cc2C(c2ccccc2Cl)=NC1O (stereo unspecified) [Lorazepam] | 167 °C |
| CC[C@H](C)C(=O)O[C@H]1C[C@@H](C)C=C2C=C[C@H](C)[C@H](CC[C@@H]3C[C@@H](O)CC(=O)O3)[C@H]21 [Lovastatin] | 174 °C |
| OCC(O)C(O)C(O)C(O)CO (stereo unspecified) [Mannitol] | 168 °C |
| CCCCOC(=O)c1ccc(O)cc1 [Mekkings B] | 72 °C |
| Cc1cnc(NC(=O)C2=C(O)c3ccccc3S(=O)(=O)N2C)s1 [Meloxicam] | 254 °C |
| NC(Cc1ccc(N(CCCl)CCCl)cc1)C(=O)O (stereo unspecified) [Melphalan] | 182 °C |
| CCCC(C)(COC(N)=O)COC(N)=O [Meprobamate] | 105 °C |
| Cc1cc(C)cc(C)c1 [Mesitylene] | -45 °C |
| COCC(=O)N(c1c(C)cccc1C)C(C)C(=O)OC (stereo unspecified) [Metalaxyl] | 72 °C |
| CS [Methanethiol] | -121 °C |
| Cn1cc[nH]c1=S [Methimazole] | 146 °C |
| COC(=O)c1ccc(N)cc1 [Methyl 4-aminobenzoate] | 114 °C |
| COC(=O)c1ccc(C=O)cc1 [Methyl 4-formylbenzoate] | 61 °C |
| COC(C)=O [Methyl acetate] | -98 °C |
| COC=O [Methyl formate] | -100 °C |
| CCCCCC(=O)OC [Methyl hexanoate] | -71 °C |
| CC1CCCCC1 [Methylcyclohexane] | -127 °C |
| c1ccc(P(CP(c2ccccc2)c2ccccc2)c2ccccc2)cc1 [Methylenebis(diphenylphosphine)] | 121 °C |
| Cc1ncc2n1-c1ccc(Cl)cc1C(c1ccccc1F)=NC2 [Midazolam] | 159 °C |
| COc1ccc(OC)c(C(O)CNC(=O)CN)c1 (stereo unspecified) [Midodrine] | 202 °C |
| Nc1cc(N2CCCCC2)nc(N)[n+]1[O-] [Minoxidil] | 248 °C |
| CN(C)C(=O)Nc1ccc(Cl)cc1 [Monuron] | 174 °C |

| SMILES | melting point |
| --- | --- |
| COc1c(N2C[C@@H]3CCCN[C@@H]3C2)c(F)cc2c(=O)c(C(=O)O)cn(C3CC3)c12 [Moxifloxacin] | 240 °C |
| CCCC(=O)NNc1ccccc1 [N'-phenylbutanehydrazide] | 104 °C |
| O=C(N[C@@H](Cc1c[nH]c2ccccc12)C(=O)O)OCc1ccccc1 [N(alpha)-benzyloxycarbonyl-l-tryptophan] | 124 °C |
| Cc1cc(-c2ccc(NC=O)c(C)c2)ccc1NC=O [N,N'-(3,3'-dimethylbiphenyl-4,4'-diyl)diformamide] | 268 °C |
| O=CNC1C/C=C/CC(NC=O)C/C=C/C1 (stereo unspecified) [N,N'-(3E,8E)-cyclodeca-3,8-diene-1,6-diyldiformamide] | 234 °C |
| O=[N+]([O-])c1cc(C=Nc2ccccc2)ccc1C=Nc1ccccc1 [N,N'-[(2-nitrobenzene-1,4-diyl)di(E)methylylidene]dianiline] | 134 °C |
| Oc1ccccc1C=NCCCN=Cc1ccccc1O [N,N'-bis(salicylidene)-1,3-propanediamine] | 52 °C |
| CCCCNC(=O)NCCCC [N,N'-di-n-butylurea] | 72 °C |
| CCN(CC)CC [N,N-Diethylethanamine] | -115 °C |
| CCN(CC)c1ccc(N=O)cc1 [N,N-diethyl-4-nitrosoaniline] | 82 °C |
| CN(C)CCCN [N,N-dimethyl-1,3-propanediamine] | -70 °C |
| CN(C)c1ccc(C2CNCCN2)cc1 (stereo unspecified) [N,N-dimethyl-4-(2-piperazinyl)aniline] | 128 °C |
| CN(C)c1ccc([N+](=O)[O-])cc1 [N,N-dimethyl-4-nitroaniline] | 165 °C |
| CCCCCCCCN(C)C [N,N-dimethyl-n-octylamine] | -57 °C |
| Cc1ccccc1NC=O [N-(2-Methylphenyl)formamide] | 53 °C |
| CC(=O)NC1=C(C)CCCC1 [N-(2-methylcyclohex-1-en-1-yl)acetamide] | 90 °C |
| CCCCc1ccc(NC(C)=O)cc1 [N-(4-butylphenyl)acetamide] | 105 °C |
| CN(C)C(=O)Nc1ccc(Cl)cc1 [N-(4-chlorophenyl)-N',N'-dimethylurea] | 173 °C |
| COc1ccc(C=Nc2ccccc2)cc1 [N-(4-methoxybenzylidene)aniline] | 65 °C and 62.3 °C and 63 °C |
| CC(=O)Nc1cccc2c([N+](=O)[O-])cccc12 [N-(5-nitronaphthalen-1-yl)acetamide] | 218 °C |
| O=C1CCC(=O)N1C1CCCCC1 [N-(cyclohexyl)succinimide] | 165 °C |
| CC(=O)NCO [N-(hydroxymethyl)acetamide] | 50 °C |
| CC(=O)N[C@H]1C(O)O[C@H](CO)[C@@H](O)[C@@H]1O (stereo partly drawn) [N-Acetyl-D-glucosamine] | 205 °C |
